Consider 8 compounds from ChEMBL document CHEMBL1201862, “PubChem BioAssay data set” (2004).

What all share (test): inhibition of tumour cell growth, NCI panel, 48 h
Test [1] concerns SK-MEL-5.
Test [2] has as its system MOLT-4.
Test [3] concerns OVCAR-5.
Test [4] deals with T47D.
Test [5] has as its system MCF7.
Test [6] has as its system ACHN.
The subject of test [7] is NCI-H522.
The subject of test [8] is SNB-19.
In test [9] the test system is KM12.
In test [10] the test system is CCRF-CEM.
Test [11] concerns HCT-116.
In test [12] the test system is NCI-H226.
The test system of test [13] is HT-29.
Test [14] concerns NCI-H23.
Test [15] relates to Hs-578T.
For test [16], the system named is SF-539.
For test [17], the system named is K562.
The subject of test [18] is CAKI-1.

Structures are written as SMILES.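 Tested at 5 concentrations; 48 h exposure; 96-well plates; endpoints linearly interpolated, else capped at highest concentration. Here, GI50 denotes the concentration required for 50% inhibition of growth.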 The source made the active and inactive calls. Cut-off read from the data, not from the text of the source: active = GI50 up to about 1.1 µM and inactive = higher.

Regarding `O=C1O/C(=C(/Br)c2ccc(Cl)c(Cl)c2)c2ccccc21`, the GI50 in test [1] was > 10 µM (inactive); in test [2], > 10 µM (inactive); in [3], > 10 µM (inactive); in test [4], > 10 µM (inactive); in [5], 7.67 µM (inactive); in test [6], > 10 µM (inactive). Moreover, the GI50 in test [7], in [8], in test [9], in [10], in test [11] and in test [12] was > 10 µM (inactive) in each case. The GI50 in test [13], in [14], in test [15], in [16], in test [17] and in [18] was > 10 µM (inactive) in each case.
Take `Nc1cccc(/C=C/C(=O)N2CCN(CCOC(c3ccccc3)c3ccccc3)CC2)c1`: the GI50 was 15.9 µM (inactive) in test [1]; 5.42 µM (inactive) in [2]; 19.1 µM (inactive) in test [3]; 13.1 µM (inactive) in test [4]; 16.8 µM (inactive) in test [5]; 16.1 µM (inactive) in test [6]. Besides, the GI50 is 15 µM (inactive) in test [7]; 17 µM (inactive) in test [8]; 17 µM (inactive) in test [9]; 10 µM (inactive) in [10]; 15.5 µM (inactive) in test [11]; 20.9 µM (inactive) in test [12]. Moreover, the GI50 in [13] is 8.2 µM (inactive); in [14] it was 18.5 µM (inactive); in test [15], 21 µM (inactive); in [16] it was 17.3 µM (inactive); in test [17], 9.98 µM (inactive); in test [18], 18.6 µM (inactive).
As for `Cc1cnc2nc(-c3cccc4ccccc34)cc(O)c2c1`, the GI50 is 0.000359 µM (active) in test [1]; 0.000955 µM (active) in test [2]; 0.00351 µM (active) in [3]; 26 µM (inactive) in test [4]; 0.00121 µM (active) in [5]; 0.00119 µM (active) in [6]. Besides, the GI50 in test [7] is 0.000261 µM (active); in [8], 0.00332 µM (active); in test [9], 0.000551 µM (active); in test [10], 0.000692 µM (active); in [11], 0.000652 µM (active); in test [12], 0.01 µM (active). Further, the GI50 was 0.000412 µM (active) in [13]; 0.00179 µM (active) in test [14]; 0.00107 µM (active) in test [15]; 0.000618 µM (active) in test [16]; 0.000462 µM (active) in test [17]; 0.000646 µM (active) in test [18].
For `CCCCCCCCCCCCCCCCCCOCC(O)COP(=O)(O)OCC1OC(n2ccc(N)nc2=O)C(O)C1O` (centres undefined), the GI50 in test [1] is 29.9 µM (inactive); in [2] it was 0.908 µM (active); in test [3], 33.6 µM (inactive); in test [4], 62.5 µM (inactive); in test [5], 22 µM (inactive); in test [6] it was 11.3 µM (inactive). Moreover, the GI50 in test [7] was 13.4 µM (inactive); in test [8] it was 11.6 µM (inactive); in test [9], 17.1 µM (inactive); in test [10], 0.56 µM (active); in [11] it was 10.9 µM (inactive); in test [12], > 100 µM (inactive). Moreover, the GI50 was 22.8 µM (inactive) in [13]; 26.1 µM (inactive) in test [14]; 36.4 µM (inactive) in test [15]; 16.6 µM (inactive) in test [16]; 28.2 µM (inactive) in [17]; 23.1 µM (inactive) in [18].
On to `COC(=O)[C@]1(c2cc3ccccc3[nH]2)CC2CN(C(=O)OCc3ccccc3)C1CC2=O` (some centres undefined), for which the GI50 in [1] is 17.1 µM (inactive); in [2], 15 µM (inactive); in [3], 14.1 µM (inactive); in test [4] it was 22.5 µM (inactive); in test [5], 16.7 µM (inactive); in [6] it was 26.6 µM (inactive). Further, the GI50 is 20.6 µM (inactive) in test [7]; 59.7 µM (inactive) in [8]; 26.9 µM (inactive) in test [9]; 28.2 µM (inactive) in test [10]; 22.8 µM (inactive) in test [11]; 18.2 µM (inactive) in test [12]. In addition, the GI50 in test [13] was 15.5 µM (inactive); in [14] it was 29.7 µM (inactive); in [15] it was 19.4 µM (inactive); in test [16], 28.3 µM (inactive); in test [17], 18.7 µM (inactive); in test [18], 38.5 µM (inactive).
For the compound `COC(=O)[C@H]1[C@@H](C(C)C)O[C@@H](C(C)C)O[C@H]1C(F)(F)F`, the GI50 in test [1], in test [2], in test [3], in test [4], in test [5] and in test [6] was > 100 µM (inactive) each time. Besides, the GI50 in test [7], in test [8], in [9], in test [10], in [11] and in test [12] was > 100 µM (inactive) each time. The GI50 in test [13], in [14], in [15], in test [16], in test [17] and in test [18] was > 100 µM (inactive) each time.
For `Cc1cc(NS(=O)(=O)c2ccc(NC(=O)c3cccc4c(NNc5ccc(S(=O)(=O)N=C(N)N)cc5)c5ccccc5nc34)cc2)no1`, the GI50 in [1] was 44.7 µM (inactive); in test [2], 28 µM (inactive); in [3] it was 83.6 µM (inactive); in test [4], 34.6 µM (inactive); in test [5] it was 43.7 µM (inactive); in test [6], 50.4 µM (inactive). In addition, the GI50 in test [7] was 29 µM (inactive); in test [8] it was 45.6 µM (inactive); in test [9] it was 36 µM (inactive); in test [10], 29 µM (inactive); in test [11], 40.2 µM (inactive); in test [12], 25.2 µM (inactive). The GI50 in [13] was 30.5 µM (inactive); in test [14] it was 74.5 µM (inactive); in [15], 27.4 µM (inactive); in [16] it was 40.1 µM (inactive); in test [17], 36.8 µM (inactive); in test [18], > 100 µM (inactive).
`CC1(C)CCC2=C(O1)/C(=N\Nc1ccc(F)cc1)c1ccccc1C2=O`: the GI50 is 8.91 µM (inactive) in test [1]; 35.3 µM (inactive) in test [2]; 35.6 µM (inactive) in test [3]; 17.3 µM (inactive) in test [4]; 27.3 µM (inactive) in test [5]; 38.5 µM (inactive) in test [6]. Also, the GI50 in [7] was 61.9 µM (inactive); in test [8], 35.6 µM (inactive); in test [9], 31.3 µM (inactive); in test [10], 11.8 µM (inactive); in [11] it was 31.3 µM (inactive); in test [12], > 100 µM (inactive). For the same compound, the GI50 was 18.9 µM (inactive) in test [13]; 25.2 µM (inactive) in test [14]; 28.4 µM (inactive) in [15]; 46.9 µM (inactive) in test [16]; 49.5 µM (inactive) in test [17]; 40.4 µM (inactive) in [18].
